From the supplement of paper PMC10307832

Compound: COc1cccc2c1C(=O)c1c(O)c3c(c(O)c1C2=O)C[C@@](O)(C(=O)CO)C[C@@H]3O[C@H]1C[C@H](N)[C@H](O)[C@H](C)O1 [Doxorubicin] + O=C(c1cc(Cc2n[nH]c(=O)c3ccccc23)ccc1F)N1CCN(C(=O)C2CC2)CC1 [Olaparib] (partner 8 µM)
Test: relative viability (nuclei count vs DMSO), 5 days (fraction); higher = more cells survive
Conditions: first compound 0.1 µM
Method in brief: (§1)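 A single step with final 0.05% Triton X-100, 1% formaldehyde and 1 ug/ml Hoechst fixed the cells and stained nuclei 5 days after treatment. Lung cancer cell lines in 1536-well plates had been treated by pin tool the day after seeding with one drug alone or a fixed anchor-drug dose plus five library-drug doses (not always all listed) in √10 steps, and nuclei were counted on 4× images. Relative viability is the ratio of nuclei in treated wells to nuclei in vehicle wells, taken as the median of duplicate plates.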

Compared with NCI-H1975, HOP-62 is lower in relative viability: 0.37 for the first, 0.296 for the second.

First: NCI-H1299
Second: NCI-H2405
The relative viability of the first is higher: 0.753 for the first, 0.421 for the second.

Going from NCI-H1355 to NCI-H838, the relative viability falls from 0.85 to 0.279.

First: CAL-12T
Second: NCI-H1666
The relative viability of the first is lower: 0.191 for the first, 0.607 for the second.

Going from EPLC-272H to NCI-H2347, the relative viability rises from 0.261 to 0.55.

Compared with NCI-H1915, NCI-H1437 is higher in relative viability: 0.27 for the first, 0.417 for the second.

First: NCI-H460
Second: NCI-H1792
The relative viability of the first is lower: 0.0883 for the first, 0.548 for the second.

First: NCI-H2085
Second: HCC-15
The relative viability of the first is higher: 0.775 for the first, 0.491 for the second.

Compared with NCI-H1944, EKVX is higher in relative viability: 0.423 for the first, 0.734 for the second.

Compound: COc1cccc2c1C(=O)c1c(O)c3c(c(O)c1C2=O)C[C@@](O)(C(=O)CO)C[C@@H]3O[C@H]1C[C@H](N)[C@H](O)[C@H](C)O1 [Doxorubicin] + CC(=O)c1c(C)c2cnc(Nc3ccc(N4CCNCC4)cn3)nc2n(C2CCCC2)c1=O [Palbociclib] (partner 0.5 µM)
Test: as above
Conditions: first compound 0.001 µM
Method in brief: as §1

Compared with NCI-H2342, RERF-LC-KJ is higher in relative viability: 0.547 for the first, 1.07 for the second.

Going from NCI-H1651 to NCI-H1734, the relative viability falls from 0.517 to 0.408.

Compared with NCI-H2009, SK-LU-1 is higher in relative viability: 0.238 for the first, 0.351 for the second.

Going from SW 1573 to LCLC-97TM1, the relative viability falls from 0.365 to 0.229.

First: NCI-H661
Second: NCI-H2228
The relative viability of the first is lower: 0.384 for the first, 0.508 for the second.

Going from EMC-BAC-2 to NCI-H2087, the relative viability falls from 0.524 to 0.259.

Compared with HCC-44, NCI-H727 is lower in relative viability: 0.99 for the first, 0.655 for the second.

Compared with LK-2, NCI-H2126 is lower in relative viability: 0.704 for the first, 0.349 for the second.

Going from NCI-H1648 to H3255, the relative viability rises from 0.283 to 0.306.

First: COR-L23
Second: COR-L 105
The relative viability of the first is lower: 0.327 for the first, 0.436 for the second.

First: LC-2-ad
Second: LU99A
The relative viability of the first is higher: 0.475 for the first, 0.449 for the second.

First: ChaGo-K-1
Second: NCI-H358
The relative viability of the first is higher: 0.962 for the first, 0.129 for the second.

Compared with NCI-H322M, HCC-78 is lower in relative viability: 0.548 for the first, 0.46 for the second.

First: NCI-H522
Second: LXF-289
The relative viability of the first is higher: 0.986 for the first, 0.589 for the second.

Going from BEN to HARA, the relative viability falls from 0.454 to 0.234.

Compared with HCC-827, NCI-H520 is lower in relative viability: 0.465 for the first, 0.213 for the second.

Compared with NCI-H2023, A-427 is higher in relative viability: 0.368 for the first, 0.518 for the second.

Compared with NCI-H647, PC-3 [JPC-3] is higher in relative viability: 0.403 for the first, 0.526 for the second.

Compared with NCI-H1755, NCI-H650 is lower in relative viability: 0.473 for the first, 0.371 for the second.

Compared with NCI-H3122, NCI-H441 is higher in relative viability: 0.182 for the first, 0.227 for the second.

Compared with NCI-H1395, 201T is lower in relative viability: 0.579 for the first, 0.351 for the second.

Going from NCI-H1975 to HOP-62, the relative viability rises from 0.413 to 0.421.

Compared with NCI-H2405, NCI-H1355 is lower in relative viability: 0.537 for the first, 0.423 for the second.

First: NCI-H838
Second: CAL-12T
The relative viability of the first is lower: 0.254 for the first, 0.41 for the second.

Compared with EPLC-272H, NCI-H2347 is higher in relative viability: 0.279 for the first, 0.456 for the second.

Compared with NCI-H1915, NCI-H1437 is lower in relative viability: 0.581 for the first, 0.315 for the second.

Going from NCI-H460 to NCI-H2085, the relative viability rises from 0.103 to 0.472.

First: HCC-15
Second: NCI-H1944
The relative viability of the first is higher: 0.743 for the first, 0.374 for the second.

For EKVX, the relative viability was 0.794.

Same assay, conditions: first compound 0.003162 µM

First: NCI-H2342
Second: RERF-LC-KJ
The relative viability of the first is lower: 0.557 for the first, 1.15 for the second.

Going from NCI-H1651 to NCI-H1734, the relative viability falls from 0.546 to 0.425.

Compared with NCI-H2009, SK-LU-1 is higher in relative viability: 0.207 for the first, 0.414 for the second.

Compared with SW 1573, LCLC-97TM1 is lower in relative viability: 0.316 for the first, 0.205 for the second.

First: NCI-H661
Second: NCI-H2228
The relative viability of the first is lower: 0.407 for the first, 0.914 for the second.

Compared with EMC-BAC-2, NCI-H2087 is lower in relative viability: 0.465 for the first, 0.216 for the second.

First: HCC-44
Second: NCI-H727
The relative viability of the first is higher: 0.981 for the first, 0.661 for the second.

First: LK-2
Second: NCI-H2126
The relative viability of the first is higher: 0.773 for the first, 0.347 for the second.

First: NCI-H1648
Second: NCI-H1793
The relative viability of the first is lower: 0.294 for the first, 0.303 for the second.

First: H3255
Second: COR-L23
The relative viability of the first is higher: 0.315 for the first, 0.274 for the second.

First: COR-L 105
Second: LC-2-ad
The relative viability of the first is lower: 0.387 for the first, 0.476 for the second.

Compared with LU99A, ChaGo-K-1 is higher in relative viability: 0.521 for the first, 0.912 for the second.

Compared with NCI-H358, NCI-H322M is higher in relative viability: 0.141 for the first, 0.482 for the second.

First: HCC-78
Second: NCI-H522
The relative viability of the first is lower: 0.526 for the first, 1.19 for the second.

Going from LXF-289 to BEN, the relative viability falls from 0.625 to 0.458.

First: HARA
Second: SW 900
The relative viability of the first is lower: 0.256 for the first, 0.604 for the second.

First: HCC-827
Second: NCI-H520
The relative viability of the first is higher: 0.458 for the first, 0.216 for the second.

First: LOU-NH91
Second: NCI-H2023
The relative viability of the first is higher: 0.459 for the first, 0.368 for the second.

First: A-427
Second: NCI-H647
The relative viability of the first is higher: 0.526 for the first, 0.492 for the second.

Going from PC-3 [JPC-3] to NCI-H1755, the relative viability falls from 0.585 to 0.481.

First: NCI-H650
Second: NCI-H3122
The relative viability of the first is higher: 0.362 for the first, 0.189 for the second.

Compared with NCI-H441, NCI-H1395 is higher in relative viability: 0.217 for the first, 0.618 for the second.

Compared with 201T, NCI-H1975 is higher in relative viability: 0.321 for the first, 0.568 for the second.

First: HOP-62
Second: NCI-H2405
The relative viability of the first is lower: 0.444 for the first, 0.534 for the second.

Going from NCI-H1355 to NCI-H838, the relative viability falls from 0.432 to 0.234.

Going from CAL-12T to NCI-H1666, the relative viability rises from 0.527 to 0.646.

First: EPLC-272H
Second: NCI-H2347
The relative viability of the first is lower: 0.28 for the first, 0.427 for the second.

Compared with NCI-H1915, NCI-H1437 is lower in relative viability: 0.536 for the first, 0.327 for the second.

Compared with NCI-H460, NCI-H1792 is higher in relative viability: 0.108 for the first, 0.668 for the second.

First: NCI-H2085
Second: HCC-15
The relative viability of the first is lower: 0.458 for the first, 0.733 for the second.

Compared with NCI-H1944, EKVX is higher in relative viability: 0.293 for the first, 0.312 for the second.

Same assay, conditions: first compound 0.01 µM

Going from NCI-H2342 to RERF-LC-KJ, the relative viability rises from 0.548 to 0.921.

First: NCI-H1651
Second: NCI-H1734
The relative viability of the first is higher: 0.461 for the first, 0.324 for the second.

Going from NCI-H2009 to SK-LU-1, the relative viability rises from 0.179 to 0.351.

Going from SW 1573 to LCLC-97TM1, the relative viability rises from 0.162 to 0.222.

Going from NCI-H661 to NCI-H2228, the relative viability rises from 0.396 to 0.555.

Compared with EMC-BAC-2, NCI-H2087 is lower in relative viability: 0.442 for the first, 0.235 for the second.

Compared with HCC-44, LK-2 is lower in relative viability: 1 for the first, 0.637 for the second.

Going from NCI-H2126 to NCI-H1648, the relative viability falls from 0.371 to 0.286.

Compared with NCI-H1793, H3255 is higher in relative viability: 0.304 for the first, 0.306 for the second.

Compared with COR-L23, COR-L 105 is higher in relative viability: 0.236 for the first, 0.367 for the second.

Compared with LC-2-ad, LU99A is lower in relative viability: 0.496 for the first, 0.44 for the second.

Compared with ChaGo-K-1, NCI-H358 is lower in relative viability: 0.911 for the first, 0.118 for the second.
